According to the kinase profiling compilation of Christmann-Franck et al. (2016):

Assays:
Test in all cases: KINOMEscan competition binding
Conditions in all cases: compound 10.0 µM
[1] = system: ABL1 (human), P00519 [H396P]
[2] = target: ACVRL1 (human) (UniProt P37023)
[3] = target: AKT1 (human) (UniProt P31749)
[4] = target: AKT3 (human) (UniProt Q9Y243)
[5] = target: BMPR2 (human) (UniProt Q13873)
[6] = target: BMX (human) (UniProt P51813)
[7] = target: BTK (human) (UniProt Q06187)
[8] = target: CAMK2A (human) (UniProt Q9UQM7)
[9] = target: CDK17 (human) (UniProt Q00537)
[10] = target: CDK8 (human) (UniProt P49336)
Sequence of CDK8 (human) (P49336 whole entry, looked up): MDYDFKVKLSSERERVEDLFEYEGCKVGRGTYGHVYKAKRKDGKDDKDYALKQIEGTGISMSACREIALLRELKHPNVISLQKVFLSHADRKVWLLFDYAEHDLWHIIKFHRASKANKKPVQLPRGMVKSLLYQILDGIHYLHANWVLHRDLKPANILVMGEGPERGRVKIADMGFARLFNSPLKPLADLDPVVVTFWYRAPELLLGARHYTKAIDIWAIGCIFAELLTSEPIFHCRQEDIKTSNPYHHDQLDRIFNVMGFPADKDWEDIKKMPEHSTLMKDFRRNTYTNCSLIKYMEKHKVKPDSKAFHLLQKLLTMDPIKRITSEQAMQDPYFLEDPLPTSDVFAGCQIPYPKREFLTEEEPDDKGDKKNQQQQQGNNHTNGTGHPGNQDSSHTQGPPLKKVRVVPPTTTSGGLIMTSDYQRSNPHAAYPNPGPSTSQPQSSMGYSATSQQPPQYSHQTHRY

[11] = system: EGFR (human), P00533 [752-759 del]
[12] = system: EGFR (human), P00533 [L858R]
[13] = target: EPHA3 (human) (UniProt P29320)
[14] = target: EPHA7 (human) (UniProt Q15375)
[15] = target: EPHA8 (human) (UniProt P29322)
[16] = target: ERBB2 (human) (UniProt P04626)
[17] = target: FES (human) (UniProt P07332)
[18] = target: FGR (human) (UniProt P09769)
[19] = target: FRK (human) (UniProt P42685)
[20] = target: MAP3K4 (human) (UniProt Q9Y6R4)
[21] = target: MAPK7 (human) (UniProt Q13164)
[22] = target: MAPKAPK2 (human) (UniProt P49137)
[23] = target: MAPKAPK5 (human) (UniProt Q8IW41)
[24] = target: NEK1 (human) (UniProt Q96PY6)
[25] = target: NEK6 (human) (UniProt Q9HC98)
[26] = target: PAK4 (human) (UniProt O96013)
[27] = target: PHKG1 (human) (UniProt Q16816)
[28] = target: PIK3CA (human) (UniProt P42336)
[29] = system: PIK3CA (human), P42336 [E545K]
Sequence of PIK3CA (human), P42336 [E545K] (P42336 whole entry E545K, looked up): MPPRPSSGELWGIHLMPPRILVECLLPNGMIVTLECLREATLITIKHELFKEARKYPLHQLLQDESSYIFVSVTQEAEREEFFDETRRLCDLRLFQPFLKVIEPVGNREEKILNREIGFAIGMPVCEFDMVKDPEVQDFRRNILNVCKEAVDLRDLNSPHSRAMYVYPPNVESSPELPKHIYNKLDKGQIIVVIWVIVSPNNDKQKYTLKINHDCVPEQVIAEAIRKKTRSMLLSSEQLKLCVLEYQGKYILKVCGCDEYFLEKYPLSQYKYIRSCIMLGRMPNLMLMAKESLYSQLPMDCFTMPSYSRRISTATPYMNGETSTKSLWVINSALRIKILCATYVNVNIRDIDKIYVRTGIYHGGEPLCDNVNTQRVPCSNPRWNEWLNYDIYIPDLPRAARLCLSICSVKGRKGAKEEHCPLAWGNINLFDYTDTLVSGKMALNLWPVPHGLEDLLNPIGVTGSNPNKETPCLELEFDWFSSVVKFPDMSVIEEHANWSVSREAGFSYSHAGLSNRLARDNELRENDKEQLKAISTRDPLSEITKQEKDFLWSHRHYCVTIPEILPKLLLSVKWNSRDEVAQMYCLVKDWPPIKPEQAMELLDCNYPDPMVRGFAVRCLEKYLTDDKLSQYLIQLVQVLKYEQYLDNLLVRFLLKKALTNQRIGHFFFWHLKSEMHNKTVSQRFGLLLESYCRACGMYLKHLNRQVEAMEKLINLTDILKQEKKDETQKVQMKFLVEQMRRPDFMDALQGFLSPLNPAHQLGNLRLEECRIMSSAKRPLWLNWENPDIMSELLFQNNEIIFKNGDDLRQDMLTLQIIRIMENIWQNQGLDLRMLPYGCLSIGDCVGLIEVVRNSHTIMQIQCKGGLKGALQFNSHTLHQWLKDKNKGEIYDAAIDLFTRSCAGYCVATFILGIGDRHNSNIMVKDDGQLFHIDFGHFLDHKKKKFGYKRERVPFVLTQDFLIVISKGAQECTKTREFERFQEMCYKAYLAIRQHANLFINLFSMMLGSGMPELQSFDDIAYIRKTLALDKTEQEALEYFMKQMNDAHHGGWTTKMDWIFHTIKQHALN

[30] = target: PKN1 (human) (UniProt Q16512)
[31] = target: PTK2B (human) (UniProt Q14289)
[32] = target: PTK6 (human) (UniProt Q13882)
[33] = target: RET (human) (UniProt P07949)
[34] = system: RET (human), P07949 [M918T]
[35] = system: RET (human), P07949 [V804L]
Sequence of RET (human), P07949 [V804L] (P07949 whole entry V804L, looked up): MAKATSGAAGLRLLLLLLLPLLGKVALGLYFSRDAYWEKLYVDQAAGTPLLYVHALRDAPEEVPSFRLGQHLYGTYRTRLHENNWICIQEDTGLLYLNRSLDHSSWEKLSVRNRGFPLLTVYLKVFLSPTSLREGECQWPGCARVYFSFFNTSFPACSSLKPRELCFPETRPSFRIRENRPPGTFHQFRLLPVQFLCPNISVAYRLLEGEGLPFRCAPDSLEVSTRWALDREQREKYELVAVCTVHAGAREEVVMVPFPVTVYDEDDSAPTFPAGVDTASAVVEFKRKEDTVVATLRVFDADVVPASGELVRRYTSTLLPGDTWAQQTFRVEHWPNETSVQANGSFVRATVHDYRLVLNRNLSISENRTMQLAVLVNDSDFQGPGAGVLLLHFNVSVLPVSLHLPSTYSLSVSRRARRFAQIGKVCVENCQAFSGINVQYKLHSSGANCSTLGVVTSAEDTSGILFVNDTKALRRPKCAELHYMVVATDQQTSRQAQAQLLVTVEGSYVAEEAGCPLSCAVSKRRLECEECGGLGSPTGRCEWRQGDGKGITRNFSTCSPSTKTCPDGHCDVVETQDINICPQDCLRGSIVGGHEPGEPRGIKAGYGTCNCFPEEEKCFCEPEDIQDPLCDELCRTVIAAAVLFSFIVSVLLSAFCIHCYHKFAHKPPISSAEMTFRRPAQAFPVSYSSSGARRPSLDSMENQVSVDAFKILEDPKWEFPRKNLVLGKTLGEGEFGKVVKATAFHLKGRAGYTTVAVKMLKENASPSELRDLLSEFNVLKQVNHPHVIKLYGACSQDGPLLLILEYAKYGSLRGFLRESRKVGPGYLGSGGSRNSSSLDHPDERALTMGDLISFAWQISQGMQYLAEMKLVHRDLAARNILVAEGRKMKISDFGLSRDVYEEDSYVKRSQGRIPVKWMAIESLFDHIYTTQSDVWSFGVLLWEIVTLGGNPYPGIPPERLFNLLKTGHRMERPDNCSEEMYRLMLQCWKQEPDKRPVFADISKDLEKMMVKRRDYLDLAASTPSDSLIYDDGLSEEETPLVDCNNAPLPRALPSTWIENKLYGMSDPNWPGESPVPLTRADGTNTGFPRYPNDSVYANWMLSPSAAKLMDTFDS

[36] = system: RET (human), P07949 [V804M]
Sequence of RET (human), P07949 [V804M] (P07949 whole entry V804M, looked up): as the sequence (P07949 whole entry V804L, looked up) above, with L804M counted along it

[37] = target: SIK1 (human) (UniProt P57059)
Sequence of SIK1 (human) (P57059 whole entry, looked up): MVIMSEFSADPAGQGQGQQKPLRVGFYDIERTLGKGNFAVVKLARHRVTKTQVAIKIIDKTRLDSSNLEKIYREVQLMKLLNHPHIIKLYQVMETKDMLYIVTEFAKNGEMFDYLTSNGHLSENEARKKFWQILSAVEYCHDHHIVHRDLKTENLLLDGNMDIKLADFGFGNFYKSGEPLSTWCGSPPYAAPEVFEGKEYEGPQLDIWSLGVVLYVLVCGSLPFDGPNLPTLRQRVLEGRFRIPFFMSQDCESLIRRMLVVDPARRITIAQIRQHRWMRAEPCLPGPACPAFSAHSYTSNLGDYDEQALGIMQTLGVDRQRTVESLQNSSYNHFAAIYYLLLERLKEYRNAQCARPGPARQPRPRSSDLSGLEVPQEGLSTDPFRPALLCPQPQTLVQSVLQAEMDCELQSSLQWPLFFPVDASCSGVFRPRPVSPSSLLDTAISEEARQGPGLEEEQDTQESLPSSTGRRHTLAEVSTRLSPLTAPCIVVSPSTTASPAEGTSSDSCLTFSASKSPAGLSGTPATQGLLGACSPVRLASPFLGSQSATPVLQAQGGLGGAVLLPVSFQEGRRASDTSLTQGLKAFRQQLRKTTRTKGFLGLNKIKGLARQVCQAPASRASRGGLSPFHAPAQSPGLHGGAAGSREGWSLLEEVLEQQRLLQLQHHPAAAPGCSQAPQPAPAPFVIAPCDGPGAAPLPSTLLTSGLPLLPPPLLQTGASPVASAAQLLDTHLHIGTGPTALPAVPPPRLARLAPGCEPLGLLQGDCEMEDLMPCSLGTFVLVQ

[38] = target: SRPK1 (human) (UniProt Q96SB4)
[39] = target: STK10 (human) (UniProt O94804)
[40] = target: TNK2 (human) (UniProt Q07912)
[41] = target: TYRO3 (human) (UniProt Q06418)
[42] = target: ULK3 (human) (UniProt Q6PHR2)
[43] = target: ZAP70 (human) (UniProt P43403)
Sequence of ZAP70 (human) (P43403 whole entry, looked up): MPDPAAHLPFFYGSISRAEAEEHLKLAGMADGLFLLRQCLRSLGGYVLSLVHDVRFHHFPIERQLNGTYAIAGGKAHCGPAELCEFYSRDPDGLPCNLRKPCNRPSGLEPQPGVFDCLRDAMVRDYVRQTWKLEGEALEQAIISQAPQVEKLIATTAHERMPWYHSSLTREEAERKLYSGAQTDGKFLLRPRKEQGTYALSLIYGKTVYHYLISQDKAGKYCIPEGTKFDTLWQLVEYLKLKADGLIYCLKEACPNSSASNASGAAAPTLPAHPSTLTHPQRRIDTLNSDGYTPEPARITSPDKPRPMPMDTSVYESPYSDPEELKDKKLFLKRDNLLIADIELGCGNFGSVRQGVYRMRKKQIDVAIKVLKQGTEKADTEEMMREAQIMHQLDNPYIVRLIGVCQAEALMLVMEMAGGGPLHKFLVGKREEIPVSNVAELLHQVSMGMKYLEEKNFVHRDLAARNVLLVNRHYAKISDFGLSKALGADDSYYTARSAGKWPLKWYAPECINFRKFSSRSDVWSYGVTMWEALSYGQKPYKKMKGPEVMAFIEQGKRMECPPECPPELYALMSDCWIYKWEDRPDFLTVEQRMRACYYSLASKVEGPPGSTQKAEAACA

Sequence of ACVRL1 (human) (P37023 whole entry, looked up): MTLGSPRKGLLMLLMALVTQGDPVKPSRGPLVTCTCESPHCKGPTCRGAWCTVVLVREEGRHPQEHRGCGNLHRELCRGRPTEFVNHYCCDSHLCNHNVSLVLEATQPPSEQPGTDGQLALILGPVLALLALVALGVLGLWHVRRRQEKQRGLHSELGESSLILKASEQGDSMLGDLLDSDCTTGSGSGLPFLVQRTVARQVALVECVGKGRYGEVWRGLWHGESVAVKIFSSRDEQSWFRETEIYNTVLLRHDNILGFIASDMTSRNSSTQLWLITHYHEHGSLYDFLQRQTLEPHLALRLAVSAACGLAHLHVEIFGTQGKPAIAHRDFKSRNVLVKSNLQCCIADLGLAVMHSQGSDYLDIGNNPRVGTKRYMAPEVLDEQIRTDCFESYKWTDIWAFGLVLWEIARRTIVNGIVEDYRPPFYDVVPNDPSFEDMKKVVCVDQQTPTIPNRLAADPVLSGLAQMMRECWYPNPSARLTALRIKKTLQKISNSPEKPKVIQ
Sequence of AKT3 (human) (Q9Y243 whole entry, looked up): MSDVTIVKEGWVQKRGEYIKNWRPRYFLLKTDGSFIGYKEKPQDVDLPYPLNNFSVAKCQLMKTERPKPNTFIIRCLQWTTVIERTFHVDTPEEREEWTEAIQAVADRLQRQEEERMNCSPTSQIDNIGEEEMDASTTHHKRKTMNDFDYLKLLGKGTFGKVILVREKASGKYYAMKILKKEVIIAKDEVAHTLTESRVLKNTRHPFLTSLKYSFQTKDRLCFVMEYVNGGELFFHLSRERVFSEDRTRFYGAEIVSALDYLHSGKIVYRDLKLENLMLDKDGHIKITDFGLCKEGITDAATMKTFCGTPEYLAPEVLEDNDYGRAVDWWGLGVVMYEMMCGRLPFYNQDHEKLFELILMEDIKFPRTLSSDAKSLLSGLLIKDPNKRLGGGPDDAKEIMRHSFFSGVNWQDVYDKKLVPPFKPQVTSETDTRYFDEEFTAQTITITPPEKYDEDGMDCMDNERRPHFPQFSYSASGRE

kinase still bound, per cent of control [1]: 0.15%
kinase still bound, per cent of control [2]: 100%
kinase still bound, per cent of control [3]: 100%
kinase still bound, per cent of control [4]: 100%
kinase still bound, per cent of control [5]: 78%
kinase still bound, per cent of control [6]: 89%
kinase still bound, per cent of control [7]: 100%
kinase still bound, per cent of control [8]: 86%
kinase still bound, per cent of control [9]: 90%
kinase still bound, per cent of control [10]: 100%
kinase still bound, per cent of control [11]: 92%
kinase still bound, per cent of control [12]: 93%
kinase still bound, per cent of control [13]: 83%
kinase still bound, per cent of control [14]: 100%
kinase still bound, per cent of control [15]: 100%
kinase still bound, per cent of control [16]: 99%
kinase still bound, per cent of control [17]: 100%
kinase still bound, per cent of control [18]: 6.6%
kinase still bound, per cent of control [19]: 70%
kinase still bound, per cent of control [20]: 100%
kinase still bound, per cent of control [21]: 0.25%
kinase still bound, per cent of control [22]: 100%
kinase still bound, per cent of control [23]: 92%
kinase still bound, per cent of control [24]: 93%
kinase still bound, per cent of control [25]: 96%
kinase still bound, per cent of control [26]: 97%
kinase still bound, per cent of control [27]: 95%
kinase still bound, per cent of control [28]: 98%
kinase still bound, per cent of control [29]: 100%
kinase still bound, per cent of control [30]: 100%
kinase still bound, per cent of control [31]: 78%
kinase still bound, per cent of control [32]: 86%
kinase still bound, per cent of control [33]: 15%
kinase still bound, per cent of control [34]: 4.2%
kinase still bound, per cent of control [35]: 1.7%
kinase still bound, per cent of control [36]: 3%
kinase still bound, per cent of control [37]: 79%
kinase still bound, per cent of control [38]: 100%
kinase still bound, per cent of control [39]: 100%
kinase still bound, per cent of control [40]: 29%
kinase still bound, per cent of control [41]: 100%
kinase still bound, per cent of control [42]: 77%
kinase still bound, per cent of control [43]: 87%
SMILES: CN1C(=O)c2ccccc2N(C)c2nc(Nc3ccc(N4CCC(O)CC4)cc3)ncc21
